Tests used:
[1] = molecular target: T1, follicle-stimulating hormone (FSH) receptor (Rattus norvegicus, UniProt P20395); test: Rat granulosa EC50 FSH (Assay B); type: cell-based
T1 construct: endogenous in cells; host or cells: rat granulosa cells
T1 sequence (P20395 18-692): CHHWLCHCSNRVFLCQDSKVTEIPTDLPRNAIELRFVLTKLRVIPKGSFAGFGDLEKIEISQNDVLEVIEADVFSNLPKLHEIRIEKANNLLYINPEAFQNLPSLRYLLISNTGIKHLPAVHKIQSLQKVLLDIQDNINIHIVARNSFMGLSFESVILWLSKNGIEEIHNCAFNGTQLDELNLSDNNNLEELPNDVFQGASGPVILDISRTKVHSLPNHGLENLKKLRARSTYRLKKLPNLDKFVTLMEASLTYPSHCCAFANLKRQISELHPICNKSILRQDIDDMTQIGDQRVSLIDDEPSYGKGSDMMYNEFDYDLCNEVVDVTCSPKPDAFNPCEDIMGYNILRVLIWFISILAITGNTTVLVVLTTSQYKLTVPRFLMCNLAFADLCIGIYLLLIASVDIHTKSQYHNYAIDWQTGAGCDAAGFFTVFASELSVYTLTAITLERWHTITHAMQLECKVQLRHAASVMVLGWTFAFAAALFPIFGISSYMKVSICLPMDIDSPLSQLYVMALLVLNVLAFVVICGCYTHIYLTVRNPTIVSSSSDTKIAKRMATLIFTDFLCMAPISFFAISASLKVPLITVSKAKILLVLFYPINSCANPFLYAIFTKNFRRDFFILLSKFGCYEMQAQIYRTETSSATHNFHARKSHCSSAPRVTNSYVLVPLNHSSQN
Description: Example 25. Rat granulosa EC50 FSH (Assay B)
The assay was performed pursuant to the teaching of Yanofsky et al. (2006) Allosteric activation of the follicle-stimulating hormone (FSH) receptor by selective, nonpeptide agonists (JBC 281(19): 13226-13233, which is incorporated by reference in the disclosure of the invention).

FSHR = molecular target: T2, FSHR (Homo sapiens, UniProt P23945); test: EC50 of cyclic AMP production in CHO FSHR cells + EC20 FSH (Assay A); type: cell-based; conditions: cyclic AMP production in CHO FSHR cells + EC20 FSH (0.265 pM), HTRF
T2 construct: expressed in transfected cells; host or cells: CHO (Cho-FSHR-LUC-1-1-43)
T2 sequence (P23945 18-695): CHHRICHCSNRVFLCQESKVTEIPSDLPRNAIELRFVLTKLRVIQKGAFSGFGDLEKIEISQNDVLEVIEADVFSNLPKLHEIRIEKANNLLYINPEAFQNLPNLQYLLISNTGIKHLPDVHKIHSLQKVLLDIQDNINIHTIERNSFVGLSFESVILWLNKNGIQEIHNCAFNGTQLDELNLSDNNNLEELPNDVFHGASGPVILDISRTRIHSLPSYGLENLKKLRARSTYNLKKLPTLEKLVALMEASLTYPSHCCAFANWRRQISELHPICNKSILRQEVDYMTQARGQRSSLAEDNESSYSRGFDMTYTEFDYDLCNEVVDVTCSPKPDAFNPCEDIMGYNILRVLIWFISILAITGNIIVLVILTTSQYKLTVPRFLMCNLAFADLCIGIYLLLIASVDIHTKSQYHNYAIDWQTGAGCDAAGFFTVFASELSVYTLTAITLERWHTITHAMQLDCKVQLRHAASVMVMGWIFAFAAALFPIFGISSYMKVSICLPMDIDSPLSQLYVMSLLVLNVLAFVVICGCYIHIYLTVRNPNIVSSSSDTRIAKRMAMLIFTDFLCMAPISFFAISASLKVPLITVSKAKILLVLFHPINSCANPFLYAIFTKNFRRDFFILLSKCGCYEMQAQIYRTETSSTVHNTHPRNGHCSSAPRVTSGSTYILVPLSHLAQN
Procedure, shortened: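 CHO cells expressing FSHR, stimulated 1 h at 37° C with compound plus EC20 FSH (0.265 pM final) and 200 μM IBMX. cAMP measured by HTRF (665/620 nm ratio) after 1 h at room temperature; effect expressed relative to maximum response of FSH standard.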

| SMILES | EC50 [1] [nM] | EC50 (FSHR) [nM] |
| --- | --- | --- |
| COc1cc(OC)cc(-n2nc(C(=O)N(C)C(C)(C)C)c3c2-c2cc(-c4nn(C)cc4C#N)c(OC)cc2OC3)c1 [Compound 146, N-tert-butyl-8-(4-cyano-1-methyl-1H-pyrazol-3-yl)-1-(3,5-dimethoxyphenyl)-7-methoxy-N-methyl-1,4-dihydrochromeno[4,3-c]pyrazole-3-carboxamide] | 101 to 500 | < 10 |
| COc1cc(-c2cc3c(cc2OC)OCc2c(C(=O)N(C)C(C)(C)C)nn(-c4cc(Cl)cc(Cl)c4)c2-3)cc(C(N)=O)n1 [Compound 117, N-tert-butyl-8-(2-carbamoyl-6-methoxypyridin-4-yl)-1-(3,5-dichlorophenyl)-7-methoxy-N-methyl-1,4-dihydrochromeno[4,3-c]pyrazole-3-carboxamide] | 10 to 100 | < 10 |
| COc1cc2c(cc1-c1cnn(CC(=O)N3CCC3)c1)-c1c(c(C(=O)N(C)C(C)(C)C)nn1-c1cc(Cl)cc(Cl)c1)CO2 [Compound 95, 8-(1-(2-(azetidin-1-yl)-2-oxoethyl)-1H-pyrazol-4-yl)-N-tert-butyl-1-(3,5-dichlorophenyl)-7-methoxy-N-methyl-1,4-dihydrochromeno[4,3-c]pyrazole-3-carboxamide] | 10 to 100 | 10 to 100 |
| CNC(=O)Cn1cc(-c2cc3c(cc2OC)OCc2c(C(=O)N(C)C(C)(C)C)nn(-c4cc(Cl)cc(Cl)c4)c2-3)cn1 [Compound 91, N-tert-butyl-1-(3,5-dichlorophenyl)-7-methoxy-N-methyl-8-(1-(2-(methylamino)-2-oxoethyl)-1H-pyrazol-4-yl)-1,4-dihydrochromeno[4,3-c]pyrazole-3-carboxamide] | 10 to 100 | < 10 |
| COc1cc(OC)cc(-n2nc(C(=O)N3CCOCC3(C)C)c3c2-c2cc(-c4cccnc4F)c(OC)cc2OC3)c1 [Compound 42, (1-(3,5-dimethoxyphenyl)-8-(2-fluoropyridin-3-yl)-7-methoxy-1,4-dihydrochromeno[4,3-c]pyrazol-3-yl)(3,3-dimethylmorpholino)methanone] | 10 to 100 | < 10 |
| COc1cc(Cl)cc(-n2nc(C(=O)N(C)C(C)(C)C)c3c2-c2cc(-c4cnn(CCO)c4)c(OC)cc2OC3)c1 [Compound 79, N-tert-butyl-1-(3-chloro-5-methoxyphenyl)-8-(1-(2-hydroxyethyl)-1H-pyrazol-4-yl)-7-methoxy-N-methyl-1,4-dihydrochromeno[4,3-c]pyrazole-3-carboxamide] | 101 to 500 | 10 to 100 |
| COc1cc2c(cc1-c1cnn(CCO)c1)-c1c(c(C(=O)N(C)C(C)(C)C)nn1-c1cc(Cl)cc(Cl)c1)CO2 [Compound 1, N-tert-butyl-1-(3,5-dichlorophenyl)-8-(1-(2-hydroxyethyl)-1H-pyrazol-4-yl)-7-methoxy-N-methyl-1,4-dihydrochromeno[4,3-c]pyrazole-3-carboxamide] | 10 to 100 | < 10 |
| COc1cc(OC)cc(-n2nc(C(=O)N3CCOCC3(C)C)c3c2-c2cc(-c4cncc(C(N)=O)c4)c(OC)cc2OC3)c1 [Compound 159] | 10 to 100 | < 10 |
| COc1cc(OC)cc(-n2nc(C(=O)N3CC[S+]([O-])CC3(C)C)c3c2-c2cc(-c4cccnc4F)c(OC)cc2OC3)c1 (stereo not shown) [Compound 40, (1-(3,5-dimethoxyphenyl)-8-(2-fluoropyridin-3-yl)-7-methoxy-1,4-dihydrochromeno[4,3-c]pyrazol-3-yl)(S-oxo-3,3-dimethylthiomorpholino)methanone] | 10 to 100 | < 10 |
| COc1cc2c(cc1-c1ccccc1F)-c1c(c(C(=O)N(C)C(C)(C)C)nn1-c1ccsc1)CO2 [Compound 63, N-tert-butyl-8-(2-fluorophenyl)-7-methoxy-N-methyl-1-(thiophen-3-yl)-1,4-dihydrochromeno[4,3-c]pyrazole-3-carboxamide] | 101 to 500 | 10 to 100 |
| COc1cc2c(cc1-c1cncc(C(N)=O)c1)-c1c(c(C(=O)N(C)C(C)(C)C#N)nn1-c1cc(F)cc(Cl)c1)CO2 [Compound 110, 8-(5-carbamoylpyridin-3-yl)-1-(3-chloro-5-fluorophenyl)-N-(2-cyanopropan-2-yl)-7-methoxy-N-methyl-1,4-dihydrochromeno[4,3-c]pyrazole-3-carboxamide] | 10 to 100 | < 10 |
| COc1cc2c(cc1-c1cc(F)cc(C(N)=O)c1)-c1c(c(C(=O)N(C)C(C)(C)C)nn1-c1cc(Cl)cc(Cl)c1)CO2 [Compound 97, N-tert-butyl-8-(3-carbamoyl-5-fluorophenyl)-1-(3,5-dichlorophenyl)-7-methoxy-N-methyl-1,4-dihydrochromeno[4,3-c]pyrazole-3-carboxamide] | < 10 | < 10 |
| COc1cc2c(cc1-c1nccc(C(N)=O)n1)-c1c(c(C(=O)N(C)C(C)(C)C)nn1-c1cc(Cl)cc(Cl)c1)CO2 [Compound 111, N-tert-butyl-8-(4-carbamoylpyrimidin-2-yl)-1-(3,5-dichlorophenyl)-7-methoxy-N-methyl-1,4-dihydrochromeno[4,3-c]pyrazole-3-carboxamide] | 101 to 500 | 10 to 100 |
| COc1cc(Cl)cc(-n2nc(C(=O)N(C)C(C)(C)C)c3c2-c2cc(-c4cncc(C(N)=O)c4)c(OC)cc2OC3)c1 [Compound 156] | 10 to 100 | < 10 |
| COc1cc2c(cc1C1CC1C(N)=O)-c1c(c(C(=O)N(C)C(C)(C)C)nn1-c1cc(Cl)cc(Cl)c1)CO2 (stereo not shown) [Compound 199] | 101 to 500 | < 10 |
| COc1cc2c(cc1-c1cnn(CC(=O)O)c1)-c1c(c(C(=O)N(C)C(C)(C)C)nn1-c1cc(Cl)cc(Cl)c1)CO2 [Compound 81, 2-(4-(3-(tert-butyl(methyl)carbamoyl)-1-(3,5-dichlorophenyl)-7-methoxy-1,4-dihydrochromeno[4,3-c]pyrazol-8-yl)-1H-pyrazol-1-yl)acetic acid] | 101 to 500 | 10 to 100 |
| COc1cc2c(cc1-c1ccccc1C(N)=O)-c1c(c(C(=O)N(C)C(C)(C)C)nn1-c1cc(Cl)cc(Cl)c1)CO2 [Compound 98, N-tert-butyl-8-(2-carbamoylphenyl)-1-(3,5-dichlorophenyl)-7-methoxy-N-methyl-1,4-dihydrochromeno[4,3-c]pyrazole-3-carboxamide] | 101 to 500 | < 10 |
| COc1cc2c(cc1-c1ccccn1)-c1c(c(C(=O)N(C)C(C)(C)C)nn1-c1ccsc1)CO2 [Compound 58, N-tert-butyl-7-methoxy-N-methyl-8-(pyridin-2-yl)-1-(thiophen-3-yl)-1,4-dihydrochromeno[4,3-c]pyrazole-3-carboxamide] | > 500 | 10 to 100 |
| COc1cc(Cl)cc(-n2nc(C(=O)N(C)C(C)(C)C)c3c2-c2cc(-c4ccn(C)n4)c(OC)cc2OC3)c1 [Compound 32, N-tert-butyl-1-(3-chloro-5-methoxyphenyl)-7-methoxy-N-methyl-8-(1-methyl-1H-pyrazol-3-yl)-1,4-dihydrochromeno[4,3-c]pyrazole-3-carboxamide] | 101 to 500 | 10 to 100 |
| COc1cc2c(cc1-c1cncc(CO)c1)-c1c(c(C(=O)N(C)C(C)(C)C)nn1-c1cc(Cl)cc(Cl)c1)CO2 [Compound 23, N-tert-butyl-1-(3,5-dichlorophenyl)-8-(5-(hydroxymethyl)pyridin-3-yl)-7-methoxy-N-methyl-1,4-dihydrochromeno[4,3-c]pyrazole-3-carboxamide] | 10 to 100 | < 10 |

— US10941152B2, “Pyrazole compounds as modulators of FSHR and uses thereof” (TOCOPHERX, INC., priority 2014, dated 2021)
